In brackets after ≈: the same amount, converted by molar mass. Where two headings read alike, the source gives them in different places.
How the values were obtained:
[1] = Liposome loading / encapsulation efficiency (General protocol)
M.tb H37Rv = test: Broth microdilution MIC with Alamar blue endpoint (MABA) / OD600; type: cell-based, Mycobacterium tuberculosis
[2] = tested on: human hepatocyte/liver (HepG2; ATCC #HB8065) cells; test: In vitro cytotoxicity (PrestoBlue cell viability), HepG2; type: cell-based
MRSA ATCC 43300 = test: MIC against methicillin resistant Staphylococcus aureus (MRSA); settings: read-out: MRSA MIC, ATCC 43300
M.tb Erdman = test: Broth microdilution MIC with Alamar blue endpoint (MABA) / OD600; type: cell-based, Mycobacterium tuberculosis
MRSA 880 NR-49120 = test: MIC against methicillin resistant Staphylococcus aureus (MRSA); settings: read-out: MRSA MIC, 880 NR-49120
[3] = tested on: African green monkey kidney (Vero; ATCC # CCL81) cells; test: In vitro cytotoxicity (PrestoBlue cell viability), Vero; type: cell-based
[4] = tested on: mitochondrial protein synthesis (COX-1/SDH-A ratio) in H9C2 rat heart myoblast cells; test: Mitochondrial protein synthesis inhibition (MitoBiogenesis in-cell ELISA, COX-1/SDH-A); type: cell-based; settings: 120 h, five days, read-out: MPS IC50
MRSA ATCC BAA-1556 = test: MIC against methicillin resistant Staphylococcus aureus (MRSA)
[5] = Aqueous solubility (visually clear solutions); type: physicochemical; settings: aqueous, 1 N HCl and/or water added
Description: Working stocks of the compounds were prepared as follows: to an aliquot of a compound (free base) in a powder form 1-1.5 equivalents of HCl in the form of 1 N aqueous solution was added, and the mixture was vortexed until homogeneity. To the resulting cake or syrup, water was added typically to the final 10 mg/ml, and complete dissolution was observed. In some instances, 0.95 equivalents of HCl were added to the free base form of the drug, and 20 mg/ml stock solution was prepared.
Aqueous solubility of the compounds of the present disclosure is illustrated by the following observations of obtaining visually clear solutions: […]

[6] = tested on: M. Tuberculosis Erdman or H37Rv vs VERO or HepG2 cells; test: Selectivity Index (mammalian cell IC50 / bacterial MIC); set-up: species or system Mycobacterium tuberculosis
M. kansasii = test: MIC in nontuberculosis mycobacteria (microbroth dilution, resazurin); type: cell-based; settings: Mycobacterium kansasii, read-out: MIC
M. chelonae = test: as above; type: cell-based, Mycobacterium chelonae; settings: Mycobacteroides chelonae, read-out: MIC
M.avium = test: as above; type: cell-based, Mycobacterium avium; settings: Mycobacterium avium, read-out: MIC
M. abscessus = test: as above; type: cell-based, Mycobacterium abscessus; settings: Mycobacteroides abscessus, read-out: MIC
[7] = In vitro burst release of liposomal drug in plasma, human; settings: mouse or human plasma, 20 min 37° C., 0.5 M AS liposomes, 40-65 mol% Chol (FIG. 5A, 5B)
Description: The plasma was thawed, if necessary, adjusted to pH 7.4 with 1 N HCl, and sequentially filtered through glass microfiber filters (GF/C), 1 µm polyethersulfone (PES), and 0.22 µm PES filters. Plasma (80 µl) was mixed with liposomal drug formulations (20 µl) in a 0.5 ml Eppendorf tube. The mixture was subsequently incubated for 20 min at 37° C. and then put into chilled water.
Incubation time was 20 min.

M. massiliense = test: MIC in nontuberculosis mycobacteria (microbroth dilution, resazurin); type: cell-based, Mycobacterium massiliense
[8] = Mycobacterium tuberculosis, H37RV; as determined in Example 2; read-out: MIC (H37Rv)
[9] = Mycobacterium tuberculosis, H37RV; read-out: Mycobacterium tuberculosis MIC, H37Rv
[10] = Homo sapiens, HepG2, 72 h; read-out: Cell viability IC50, HepG2
[11] = Mycobacterium tuberculosis, ERDMAN; read-out: Mycobacterium tuberculosis MIC, Erdman
[12] = Chlorocebus sabaeus, Vero, 72 h; read-out: Cell viability IC50, VERO
[13] = read-out: MRSA MIC, ATCC BAA-1556
[14] = Mycobacterium tuberculosis; M. tuberculosis Erdman / H37Rv, strains not separated; read-out: MIC

**Q.** With `CN(C)CCn1nnc(-c2ccc(-c3ccc(N4C[C@H](CO)OC4=O)cc3F)cn2)n1` [AKG-16] as the compound, how does the “Maximum encapsulated drug payload” value ([1]; 0.5 M AS, 0.5 mol% PEG) read?
**A.** 668-675 g/mol PhL

**Q.** What about the “Maximum encapsulated drug payload” value ([1]; 0.5 M AS, 5 mol% PEG) of the same compound?
**A.** 614-619 g/mol PhL

**Q.** And the maximum drug load ([1]; 1 N TEA-SOS, DL0 750-1500 g/mol PhL, no buffer)?
**A.** 938-951 g/mol PhL

**Q.** What about the MIC (M.tb H37Rv; [8]) of the same compound?
**A.** 0.25 µg/mL (≈ 0.585 µM)

**Q.** And the MIC (M.tb H37Rv; [9])?
**A.** 0.25 µg/mL (≈ 0.585 µM)

**Q.** What about the IC50 [2, 10] of the same compound?
**A.** 91 µg/mL (≈ 213 µM)

**Q.** And the MIC (MRSA ATCC 43300)?
**A.** 1.85 µg/mL (≈ 4.33 µM)

**Q.** And the MIC (M.tb Erdman; [11])?
**A.** 0.25 µg/mL (≈ 0.585 µM)

**Q.** What about the MIC (MRSA 880 NR-49120) of the same compound?
**A.** 1.85 µg/mL (≈ 4.33 µM)

**Q.** And the IC50 [3, 12]?
**A.** 97 µg/mL (≈ 227 µM)

**Q.** And the IC50 [4]?
**A.** 0.244 µg/mL (≈ 0.571 µM)

**Q.** And the MIC (MRSA ATCC BAA-1556; [13])?
**A.** 1.85 µg/mL (≈ 4.33 µM)

**Q.** And the “Concentration % (w/w) of free base (visually clear solution)” value [5]?
**A.** 30.0 % (w/w)

**Q.** For `Cl.Cl.NCCn1nnc(-c2ccc(-c3ccc(N4C[C@H](CN)OC4=O)cc3F)cn2)n1` [AKG-29], which MIC (M.tb H37Rv; Mycobacterium tuberculosis, H37RV, read-out: MIC (H37Rv)) is on record?
**A.** 0.125 µg/mL

**Q.** And the MIC (M.tb H37Rv; Mycobacterium tuberculosis, H37RV, read-out: Mycobacterium tuberculosis MIC, H37Rv)?
**A.** 0.125 µg/mL

**Q.** What about the IC50 ([2]; Homo sapiens, HepG2, 72 h, read-out: Cell viability IC50, HepG2) of the same compound?
**A.** 74.4 µg/mL

**Q.** And the “Selectivity Index (SI) Erd/HepG2” value [6]?
**A.** 297.6

**Q.** What about the “Selectivity Index (SI) Erd/VERO” value [6] of the same compound?
**A.** 439.6

**Q.** And the MIC (MRSA ATCC 43300)?
**A.** > 50 µg/mL

**Q.** And the MIC (M.tb Erdman; Mycobacterium tuberculosis, ERDMAN, read-out: Mycobacterium tuberculosis MIC, Erdman)?
**A.** 0.25 µg/mL

**Q.** What about the MIC (MRSA 880 NR-49120) of the same compound?
**A.** 50 µg/mL

**Q.** What about the IC50 ([3]; Chlorocebus sabaeus, Vero, 72 h, read-out: Cell viability IC50, VERO) of the same compound?
**A.** 110 µg/mL

**Q.** And the IC50 [4]?
**A.** 4.11 µg/mL

**Q.** And the MIC (MRSA ATCC BAA-1556; read-out: MRSA MIC)?
**A.** > 50 µg/mL

**Q.** And the MIC (MRSA ATCC BAA-1556; [13])?
**A.** 50 µg/mL

**Q.** Which results are given for `CCN(CC)CCn1nnc(-c2ccc(-c3ccc(N4C[C@H](CNC(C)=O)OC4=O)cc3F)cn2)n1` [AKG-39]?
**A.** MIC (M.tb H37Rv; [8]): 0.5 µg/mL (≈ 1.01 µM); MIC (M.tb H37Rv; [9]): 0.5 µg/mL (≈ 1.01 µM); IC50 [2, 10]: 70 µg/mL (≈ 141 µM); Selectivity Index (SI) Erd/HepG2 [6]: 140.0; Selectivity Index (SI) Erd/VERO [6]: 402.0; MIC (MRSA ATCC 43300): 1.85 µg/mL (≈ 3.73 µM); MIC (M.tb Erdman; [11]): 0.5 µg/mL (≈ 1.01 µM); MIC (M.tb Erdman; [14]): 0.5 µg/mL (≈ 1.01 µM); MIC (MRSA 880 NR-49120): 1.85 µg/mL (≈ 3.73 µM); IC50 [3, 12]: 201 µg/mL (≈ 405 µM); IC50 [4]: 0.06 µg/mL (≈ 0.121 µM); MIC (MRSA ATCC BAA-1556; [13]): 1.85 µg/mL (≈ 3.73 µM)

**Q.** What does the source list for `CC(=O)NC[C@H]1CN(c2ccc(-c3ccc(-c4nnn(CCN(C)C)n4)nc3)c(F)c2)C(=O)O1` [AKG-38]?
**A.** maximum drug load ([1]; 0.5 M AS, HSPC:Chol 3:2, 0.5 mol% PEG-DSG (Example 14)): 818-842 g/mol PhL; maximum drug load ([1]; 1 N TEA-SOS, HSPC:Chol 3:2, 0.5 mol% PEG-DSG (Example 14)): 989 g/mol PhL; liposome aggregation during drug loading ([1]; 30 mol% cholesterol, 1 N TEA-SOS, AKG-28: 5 mol% PEG-DSG or PEG-DSPE, AKG-38: 5 mol% PEG-DSPE): irreversibly aggregated during the drug loading; drug load ([1]; 30 mol% cholesterol, 5 mol % PEG-DSG, 1 N TEA-SOS): 462.4 g/mol PhL; MIC (M. kansasii; M. kansasii strain 662): > 32 µg/mL; MIC (M. kansasii; M. kansasii strain 732): 0.03 µg/mL (≈ 0.064 µM); MIC (M. kansasii; M. kansasii strain 824): 0.06 µg/mL (≈ 0.128 µM); MIC (M. kansasii; M. kansasii strain MK13D6): 0.03 µg/mL (≈ 0.064 µM); MIC (M. kansasii; M. kansasii strain WT171017): 0.03 µg/mL (≈ 0.064 µM); MIC (M.tb H37Rv; [8]): 0.06 µg/mL (≈ 0.128 µM); MIC (M.tb H37Rv; [9]): 0.06 µg/mL (≈ 0.128 µM); IC50 [2, 10]: 97 µg/mL (≈ 207 µM); MIC (M. chelonae; M. chelonae strain 49): 0.06 µg/mL (≈ 0.128 µM); MIC (M. chelonae; M. chelonae strain 69): 0.5 µg/mL (≈ 1.07 µM); MIC (M. chelonae; M. chelonae strain 35752): 0.06 µg/mL (≈ 0.128 µM); MIC (M.avium; M. avium sbsp. avium strain 2285 R): 0.06 µg/mL (≈ 0.128 µM); MIC (M.avium; M. avium sbsp. avium strain 2285 S): 0.125 µg/mL (≈ 0.267 µM); MIC (M.avium; M. avium sbsp. avium strain 3993): 0.125 µg/mL (≈ 0.267 µM); MIC (M. abscessus; M. abscessus sbsp. abscessus strain 21): 0.06 µg/mL (≈ 0.128 µM); MIC (M. abscessus; M. abscessus sbsp. abscessus strain 1513): 32 µg/mL (≈ 68.3 µM); MIC (M. abscessus; M. abscessus sbsp. abscessus strain 1948): 0.06 µg/mL (≈ 0.128 µM); MIC (MRSA ATCC 43300): 1.85 µg/mL (≈ 3.95 µM); MIC (M.tb Erdman; [11]): 0.06 µg/mL (≈ 0.128 µM); MIC (M.tb Erdman; [14]): 0.06 µg/mL (≈ 0.128 µM); MIC (MRSA 880 NR-49120): 0.617 µg/mL (≈ 1.32 µM); IC50 [3, 12]: 395 µg/mL (≈ 843 µM); IC50 [4]: 0.041 µg/mL (≈ 0.0875 µM); burst release phenomenon in plasma in vitro [7]: observed in both human and mouse plasma for the formulations with cholesterol content of 40 mol.% and 45 mol.%, but not at cholesterol content of 50 mol.% or more; MIC (MRSA ATCC BAA-1556; [13]): 1.85 µg/mL (≈ 3.95 µM); Concentration % (w/w) of free base (visually clear solution) [5]: 7.1 % (w/w); MIC (M. massiliense; M. massiliense strain M154): 0.25 µg/mL (≈ 0.534 µM); MIC (M. massiliense; Mycobacteroides abscessus, CIP108297, M. massiliense strain CIP 108297, read-out: MIC): 0.5 µg/mL (≈ 1.07 µM); MIC (M. massiliense; Mycobacteroides abscessus, M. massiliense strain CRM0019, read-out: MIC): 0.25 µg/mL (≈ 0.534 µM)

Source: patent publication US20230348447A1, “OXAZOLIDINONE COMPOUNDS, LIPOSOME COMPOSITIONS COMPRISING OXAZOLIDINONE COMPOUNDS AND METHOD OF USE THEREOF” (priority 2020, published 2023)
